{
  "source": "patent US8563571B2",
  "about": "“Crystalline forms of oxymorphone hydrochloride” (Noramco, Inc., priority 2010, dated 2013)",
  "key": {"[1]": {"experiment": "Dynamic vapor moisture sorption/desorption analysis", "type": "physicochemical", "settings": "for Moisture uptake by weight: between 75% and 95% RH, sorption; for hysteresis during the desorption cycle: desorption cycle (Form B: between 45% RH and 5% RH); for relative humidity above which hygroscopicity was exhibited: dynamic vapor sorption/desorption, 5% to 95% RH", "experimental": "Dynamic vapor sorption/desorption data were collected on a VTI SGA-100 Vapor Sorption Analyzer. Sorption and desorption data were collected over a range of 5% to 95% relative humidity (RH) at 10% RH intervals under a nitrogen purge. Samples were not dried prior to analysis. Equilibrium criteria used for analysis were less than 0.0100% weight change in 5 minutes, with a maximum equilibration time of 3 hours if the weight criterion was not met. Data were not corrected for the initial moisture content of the samples. NaCl and PVP were used as calibration standards.\nDynamic vapor moisture sorption/desorption data was collected for representative samples for oxymorphone HCl Form A and Form B, as shown in FIG. 13 and FIG. 16, respectively."}, "[2]": {"experiment": "Mechanical grinding studies (physical stability of crystalline form)"}, "[3]": {"experiment": "Physical stability at ambient temperature storage (re-analysis of crystalline form)"}, "[4]": {"settings": "re-analyzed after approximately 12 months"}},
  "data": [
    {"molecule": "CN1CC[C@]23c4c5ccc(O)c4O[C@H]2C(=O)CC[C@@]3(O)[C@H]1C5.Cl", "note": "[Form A, 4,5-epoxy-3,14-dihydroxy-17-methyl-(5α)-morphinan-6-one hydrochloride (1:1), reference compound]", "values": [
      {"measurement": "moisture retained at the end of the desorption cycle", "setting": "[1]; at 5% RH, end of cycle", "value": 2.4, "unit": "%"},
      {"measurement": "Moisture uptake by weight", "setting": "[1]", "value": "about 50%"},
      {"measurement": "hysteresis during the desorption cycle", "setting": "[1]", "value": "hysteresis was observed"},
      {"measurement": "relative humidity above which hygroscopicity was exhibited", "setting": "[1]", "value": "above 75%"}
    ]},
    {"molecule": "CN1CC[C@]23c4c5ccc(O)c4O[C@H]2C(=O)CC[C@@]3(O)[C@H]1C5.Cl", "note": "[Form B, 4,5-epoxy-3,14-dihydroxy-17-methyl-(5α)-morphinan-6-one hydrochloride (1:1)]", "values": [
      {"measurement": "Moisture uptake by weight", "setting": "[1]", "value": "about 43%"},
      {"measurement": "hysteresis during the desorption cycle", "setting": "[1]", "value": "no hysteresis was observed"},
      {"measurement": "relative humidity above which hygroscopicity was exhibited", "setting": "[1]", "value": "above 75%"},
      {"measurement": "moisture content at the end of the cycle (in words)", "setting": "[1]; end of desorption cycle", "value": "returned to the initial moisture content"},
      {"measurement": "physical stability under mechanical grinding", "setting": "[2]; in the presence of a small quantity of water", "value": "physically stable"},
      {"measurement": "physical stability under mechanical grinding", "setting": "[2]; mechanically ground in the absence of water", "value": "partially converted to Form A"}
    ]},
    {"molecule": "CN1CC[C@]23c4c5ccc(O)c4O[C@H]2C(=O)CC[C@@]3(O)[C@H]1C5.Cl", "note": "[Form C, 4,5-epoxy-3,14-dihydroxy-17-methyl-(5α)-morphinan-6-one hydrochloride (1:1)]", "values": [
      {"measurement": "form found on re-analysis by pXRD after storage in ambient conditions", "setting": "[3]; Example 8 sample, storage time not given", "value": "remain Form C"},
      {"measurement": "stability at ambient temperature storage", "setting": "[3]; [4]", "value": "stable"}
    ]},
    {"molecule": "CN1CC[C@]23c4c5ccc(O)c4O[C@H]2C(=O)CC[C@@]3(O)[C@H]1C5.Cl", "note": "[Form D, 4,5-epoxy-3,14-dihydroxy-17-methyl-(5α)-morphinan-6-one hydrochloride (1:1)]", "values": [
      {"measurement": "crystalline form(s) converted to on ambient temperature storage", "setting": "[3]; after approximately 12 months", "value": "a mixture of Form A and Form B"},
      {"measurement": "stability at ambient temperature storage", "setting": "[3]; [4]", "value": "unstable"}
    ]},
    {"molecule": "CN1CC[C@]23c4c5ccc(O)c4O[C@H]2C(=O)CC[C@@]3(O)[C@H]1C5.Cl", "note": "[Form F, 4,5-epoxy-3,14-dihydroxy-17-methyl-(5α)-morphinan-6-one hydrochloride (1:1)]", "values": [
      {"measurement": "crystalline form(s) converted to on ambient temperature storage", "setting": "[3]; after approximately 10 months", "value": "converting to Form A"},
      {"measurement": "stability at ambient temperature storage", "setting": "[3]; after approximately 10 months", "value": "unstable"}
    ]},
    {"molecule": "CN1CC[C@]23c4c5ccc(O)c4O[C@H]2C(=O)CC[C@@]3(O)[C@H]1C5.Cl", "note": "[Form L, 4,5-epoxy-3,14-dihydroxy-17-methyl-(5α)-morphinan-6-one hydrochloride (1:1)]", "values": [
      {"measurement": "crystalline form(s) converted to on ambient temperature storage", "setting": "[3]; after approximately 10 weeks", "value": "a mixture of crystalline forms, one of which is Form A (a sesquihydrate) and the other is a monohydrate/hemi-ethanolate"},
      {"measurement": "stability at ambient temperature storage", "setting": "[3]; after approximately 10 weeks", "value": "unstable"}
    ]}
  ]
}
